The values below come from ChEMBL document CHEMBL3991601, “The target landscape of clinical kinase drugs” (Science, 2017).

Active and inactive are the calls of the source. For most assays here, no stated cut-off is given here; in the data, actives have a measured Kd and inactives only a lower limit.

Test [1] addresses Casein kinase I isoform delta (Homo sapiens, UniProt P48730).
Test [2] deals with Serine/threonine-protein kinase PAK 4 (Homo sapiens, UniProt O96013).
The target of test [3] is T1, Glycogen phosphorylase, brain form (Homo sapiens, UniProt P11216).
T1 sequence (P11216 whole entry): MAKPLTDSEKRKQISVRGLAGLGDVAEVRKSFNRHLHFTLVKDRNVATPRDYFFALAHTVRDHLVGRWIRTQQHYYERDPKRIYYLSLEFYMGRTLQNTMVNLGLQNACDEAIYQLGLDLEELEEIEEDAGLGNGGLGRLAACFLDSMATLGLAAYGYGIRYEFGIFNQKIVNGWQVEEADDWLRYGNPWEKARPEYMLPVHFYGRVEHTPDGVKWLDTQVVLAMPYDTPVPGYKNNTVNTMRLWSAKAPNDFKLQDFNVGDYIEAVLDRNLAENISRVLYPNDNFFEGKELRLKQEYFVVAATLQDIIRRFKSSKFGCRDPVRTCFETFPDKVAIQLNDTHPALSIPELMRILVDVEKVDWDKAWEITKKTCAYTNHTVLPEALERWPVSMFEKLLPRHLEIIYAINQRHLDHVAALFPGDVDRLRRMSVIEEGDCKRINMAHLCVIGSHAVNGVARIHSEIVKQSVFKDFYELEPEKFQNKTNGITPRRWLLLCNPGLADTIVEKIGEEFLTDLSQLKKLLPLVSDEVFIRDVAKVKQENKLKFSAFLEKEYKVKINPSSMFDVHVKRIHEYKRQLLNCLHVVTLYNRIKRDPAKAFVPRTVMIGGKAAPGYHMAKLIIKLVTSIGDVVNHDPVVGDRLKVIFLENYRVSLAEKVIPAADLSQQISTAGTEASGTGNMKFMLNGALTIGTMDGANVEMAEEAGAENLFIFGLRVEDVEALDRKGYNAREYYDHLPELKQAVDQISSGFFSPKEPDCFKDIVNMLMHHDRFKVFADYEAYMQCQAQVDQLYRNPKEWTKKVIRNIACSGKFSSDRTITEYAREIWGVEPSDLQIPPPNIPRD

The next test concerns the target LIM domain kinase 2 (Homo sapiens, UniProt P53671).
For test [4], the target named is cAMP-dependent protein kinase type II-alpha regulatory subunit (Homo sapiens, UniProt P13861).
Chain of cAMP-dependent protein kinase type II-alpha regulatory subunit (P13861 whole entry): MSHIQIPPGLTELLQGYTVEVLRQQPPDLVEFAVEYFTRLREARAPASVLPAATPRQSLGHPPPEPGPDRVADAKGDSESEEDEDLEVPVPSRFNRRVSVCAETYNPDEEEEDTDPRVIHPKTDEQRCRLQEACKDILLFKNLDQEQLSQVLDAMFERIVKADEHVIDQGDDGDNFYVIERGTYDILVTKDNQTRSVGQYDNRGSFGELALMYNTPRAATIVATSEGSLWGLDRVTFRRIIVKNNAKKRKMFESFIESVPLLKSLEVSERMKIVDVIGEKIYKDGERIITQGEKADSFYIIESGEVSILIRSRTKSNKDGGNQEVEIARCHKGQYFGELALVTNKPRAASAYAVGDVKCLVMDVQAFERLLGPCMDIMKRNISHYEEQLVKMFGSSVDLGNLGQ
Test [5] deals with MAP/microtubule affinity-regulating kinase 3 (Homo sapiens, UniProt P27448).
Chain of MAP/microtubule affinity-regulating kinase 3 (P27448 whole entry): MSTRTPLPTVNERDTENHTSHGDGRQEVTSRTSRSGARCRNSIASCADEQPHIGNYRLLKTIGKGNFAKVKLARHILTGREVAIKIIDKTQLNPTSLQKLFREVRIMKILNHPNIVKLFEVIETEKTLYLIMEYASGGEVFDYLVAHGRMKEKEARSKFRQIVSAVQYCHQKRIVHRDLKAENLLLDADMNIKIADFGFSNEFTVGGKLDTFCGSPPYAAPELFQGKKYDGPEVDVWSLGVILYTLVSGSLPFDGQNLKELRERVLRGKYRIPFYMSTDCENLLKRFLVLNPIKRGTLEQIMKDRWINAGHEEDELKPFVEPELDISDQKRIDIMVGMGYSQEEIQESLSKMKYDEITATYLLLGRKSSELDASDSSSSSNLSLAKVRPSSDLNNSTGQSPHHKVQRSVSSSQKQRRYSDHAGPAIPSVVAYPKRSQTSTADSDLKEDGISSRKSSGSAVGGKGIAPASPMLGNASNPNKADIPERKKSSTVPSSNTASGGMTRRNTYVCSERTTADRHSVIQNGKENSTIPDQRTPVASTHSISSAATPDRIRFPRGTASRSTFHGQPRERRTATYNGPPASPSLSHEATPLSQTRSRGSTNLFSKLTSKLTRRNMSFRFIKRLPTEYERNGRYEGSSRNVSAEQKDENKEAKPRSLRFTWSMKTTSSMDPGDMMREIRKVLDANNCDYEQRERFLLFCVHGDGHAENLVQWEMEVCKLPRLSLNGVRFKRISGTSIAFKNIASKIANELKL
For another test, the target named is Focal adhesion kinase 1 (Homo sapiens, UniProt Q05397).
Chain of Focal adhesion kinase 1 (Q05397 whole entry): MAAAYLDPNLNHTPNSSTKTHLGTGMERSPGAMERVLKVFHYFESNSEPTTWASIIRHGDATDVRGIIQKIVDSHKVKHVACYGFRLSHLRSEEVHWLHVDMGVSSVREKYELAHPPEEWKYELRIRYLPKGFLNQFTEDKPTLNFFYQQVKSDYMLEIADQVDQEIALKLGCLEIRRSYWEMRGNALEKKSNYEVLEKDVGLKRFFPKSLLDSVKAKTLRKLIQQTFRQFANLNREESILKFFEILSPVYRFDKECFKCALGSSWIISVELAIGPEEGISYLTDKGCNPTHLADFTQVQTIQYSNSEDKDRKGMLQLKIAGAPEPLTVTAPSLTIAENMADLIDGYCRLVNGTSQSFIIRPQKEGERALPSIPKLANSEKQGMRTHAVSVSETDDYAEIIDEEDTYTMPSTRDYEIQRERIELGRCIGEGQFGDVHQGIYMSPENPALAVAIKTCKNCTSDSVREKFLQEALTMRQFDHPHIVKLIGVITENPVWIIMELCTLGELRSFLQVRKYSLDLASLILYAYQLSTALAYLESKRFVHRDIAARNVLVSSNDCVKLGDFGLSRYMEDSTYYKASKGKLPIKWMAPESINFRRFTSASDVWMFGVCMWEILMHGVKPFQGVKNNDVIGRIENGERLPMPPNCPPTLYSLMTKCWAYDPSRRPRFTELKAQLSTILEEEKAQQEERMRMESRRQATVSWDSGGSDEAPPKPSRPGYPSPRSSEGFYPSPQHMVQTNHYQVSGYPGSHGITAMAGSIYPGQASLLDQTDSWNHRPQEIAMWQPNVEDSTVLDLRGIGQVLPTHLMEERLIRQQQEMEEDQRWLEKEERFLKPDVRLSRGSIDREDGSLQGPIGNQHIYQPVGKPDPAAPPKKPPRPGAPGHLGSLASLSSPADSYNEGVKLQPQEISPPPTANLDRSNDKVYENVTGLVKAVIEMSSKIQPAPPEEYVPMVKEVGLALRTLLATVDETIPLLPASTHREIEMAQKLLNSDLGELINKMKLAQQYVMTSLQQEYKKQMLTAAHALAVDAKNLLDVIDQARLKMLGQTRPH
Test [6] concerns the target T2, Acyl-CoA dehydrogenase family member 11 (Homo sapiens, UniProt Q709F0).
T2 sequence (Q709F0 whole entry): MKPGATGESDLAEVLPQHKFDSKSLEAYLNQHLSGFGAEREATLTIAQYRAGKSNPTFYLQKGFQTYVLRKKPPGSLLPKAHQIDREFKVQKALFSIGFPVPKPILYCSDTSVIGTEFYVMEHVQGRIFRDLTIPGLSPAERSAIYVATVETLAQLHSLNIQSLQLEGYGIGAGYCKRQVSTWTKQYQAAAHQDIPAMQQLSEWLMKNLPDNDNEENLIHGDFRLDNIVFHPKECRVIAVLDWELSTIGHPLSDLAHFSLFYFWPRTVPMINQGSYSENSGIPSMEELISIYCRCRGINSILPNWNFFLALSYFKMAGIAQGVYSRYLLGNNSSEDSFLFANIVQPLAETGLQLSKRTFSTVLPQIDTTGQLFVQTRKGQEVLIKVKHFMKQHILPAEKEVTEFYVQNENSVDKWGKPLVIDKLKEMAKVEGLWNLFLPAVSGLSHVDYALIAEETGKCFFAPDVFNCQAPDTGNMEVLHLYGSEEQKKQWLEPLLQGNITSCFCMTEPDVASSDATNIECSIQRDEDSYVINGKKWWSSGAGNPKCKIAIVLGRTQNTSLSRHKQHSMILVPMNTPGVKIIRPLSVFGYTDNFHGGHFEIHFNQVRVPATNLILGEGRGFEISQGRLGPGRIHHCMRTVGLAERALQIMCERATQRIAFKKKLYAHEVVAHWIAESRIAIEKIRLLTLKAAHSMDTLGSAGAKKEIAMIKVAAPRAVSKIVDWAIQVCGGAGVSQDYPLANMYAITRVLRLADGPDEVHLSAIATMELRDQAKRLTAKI

Test [7] addresses T3, STE20-related kinase adapter protein alpha (Homo sapiens, UniProt Q7RTN6).
T3 sequence (Q7RTN6 whole entry): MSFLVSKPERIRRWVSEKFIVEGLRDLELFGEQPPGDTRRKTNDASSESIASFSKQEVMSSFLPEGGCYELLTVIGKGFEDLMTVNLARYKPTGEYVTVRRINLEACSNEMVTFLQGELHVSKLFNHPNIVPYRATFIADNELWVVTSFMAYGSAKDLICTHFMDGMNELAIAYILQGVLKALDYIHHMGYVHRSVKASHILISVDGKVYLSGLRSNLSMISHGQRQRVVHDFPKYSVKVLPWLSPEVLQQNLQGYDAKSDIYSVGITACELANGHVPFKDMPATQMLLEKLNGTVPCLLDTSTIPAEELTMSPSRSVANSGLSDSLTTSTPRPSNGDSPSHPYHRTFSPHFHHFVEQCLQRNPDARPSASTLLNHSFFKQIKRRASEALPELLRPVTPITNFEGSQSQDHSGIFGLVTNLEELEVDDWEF

For test [8], the target named is Ribosomal protein S6 kinase alpha-5 (Homo sapiens, UniProt O75582).
Chain of Ribosomal protein S6 kinase alpha-5 (O75582 whole entry): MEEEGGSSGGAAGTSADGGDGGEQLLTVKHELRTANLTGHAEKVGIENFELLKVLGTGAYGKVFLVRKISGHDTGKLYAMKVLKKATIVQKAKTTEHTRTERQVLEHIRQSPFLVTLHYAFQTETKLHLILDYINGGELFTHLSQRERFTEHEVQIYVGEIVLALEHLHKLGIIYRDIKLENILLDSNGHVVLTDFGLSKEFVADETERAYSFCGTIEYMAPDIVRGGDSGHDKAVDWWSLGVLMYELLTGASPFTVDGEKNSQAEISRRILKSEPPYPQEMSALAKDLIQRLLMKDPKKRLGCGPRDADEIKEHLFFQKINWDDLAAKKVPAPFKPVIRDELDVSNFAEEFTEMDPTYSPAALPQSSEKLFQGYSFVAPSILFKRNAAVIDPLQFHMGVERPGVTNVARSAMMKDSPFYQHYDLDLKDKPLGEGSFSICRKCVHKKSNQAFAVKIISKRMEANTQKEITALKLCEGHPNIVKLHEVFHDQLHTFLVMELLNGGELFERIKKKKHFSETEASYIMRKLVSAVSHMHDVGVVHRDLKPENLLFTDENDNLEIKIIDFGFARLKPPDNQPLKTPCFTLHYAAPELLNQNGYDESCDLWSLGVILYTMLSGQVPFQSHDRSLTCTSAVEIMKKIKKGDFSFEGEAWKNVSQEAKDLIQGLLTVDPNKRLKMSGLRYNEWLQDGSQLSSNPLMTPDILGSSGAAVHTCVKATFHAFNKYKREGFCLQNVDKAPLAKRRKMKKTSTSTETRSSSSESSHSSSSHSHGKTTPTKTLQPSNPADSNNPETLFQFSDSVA
The target of test [9] is T4, Tyrosine--tRNA ligase, cytoplasmic (Homo sapiens, UniProt P54577).
T4 sequence (P54577 whole entry): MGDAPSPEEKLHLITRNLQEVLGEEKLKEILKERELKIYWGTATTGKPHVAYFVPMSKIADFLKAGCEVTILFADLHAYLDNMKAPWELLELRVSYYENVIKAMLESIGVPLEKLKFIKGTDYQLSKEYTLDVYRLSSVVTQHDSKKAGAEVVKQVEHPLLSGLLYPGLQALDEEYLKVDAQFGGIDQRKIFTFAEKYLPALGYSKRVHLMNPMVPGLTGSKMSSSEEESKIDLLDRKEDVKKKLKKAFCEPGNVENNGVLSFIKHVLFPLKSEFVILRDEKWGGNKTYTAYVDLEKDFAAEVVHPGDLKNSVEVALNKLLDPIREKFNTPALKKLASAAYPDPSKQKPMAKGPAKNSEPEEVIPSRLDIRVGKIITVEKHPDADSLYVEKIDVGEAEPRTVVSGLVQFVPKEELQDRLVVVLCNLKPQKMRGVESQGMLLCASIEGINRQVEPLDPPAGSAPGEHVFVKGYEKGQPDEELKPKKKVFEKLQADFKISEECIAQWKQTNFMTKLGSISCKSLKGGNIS

Chain of LIM domain kinase 2 (P53671 whole entry, the tested form may be a part): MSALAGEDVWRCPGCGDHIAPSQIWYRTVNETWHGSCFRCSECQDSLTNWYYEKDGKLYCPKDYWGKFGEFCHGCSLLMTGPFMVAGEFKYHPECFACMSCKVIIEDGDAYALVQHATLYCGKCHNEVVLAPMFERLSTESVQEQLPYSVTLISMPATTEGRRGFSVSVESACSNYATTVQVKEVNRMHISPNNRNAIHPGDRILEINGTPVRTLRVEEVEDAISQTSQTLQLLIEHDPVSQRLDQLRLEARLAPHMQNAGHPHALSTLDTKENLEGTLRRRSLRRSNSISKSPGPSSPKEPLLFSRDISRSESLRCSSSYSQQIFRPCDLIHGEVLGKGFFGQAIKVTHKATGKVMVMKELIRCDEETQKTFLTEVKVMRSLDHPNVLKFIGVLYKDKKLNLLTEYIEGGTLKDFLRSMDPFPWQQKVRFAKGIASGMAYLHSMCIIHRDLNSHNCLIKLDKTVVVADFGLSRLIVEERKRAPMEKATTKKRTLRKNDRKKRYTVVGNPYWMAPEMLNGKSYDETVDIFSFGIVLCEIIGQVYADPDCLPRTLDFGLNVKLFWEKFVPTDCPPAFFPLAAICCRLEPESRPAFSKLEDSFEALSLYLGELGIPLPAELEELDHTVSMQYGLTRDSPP
Chain of Serine/threonine-protein kinase PAK 4 (O96013 whole entry): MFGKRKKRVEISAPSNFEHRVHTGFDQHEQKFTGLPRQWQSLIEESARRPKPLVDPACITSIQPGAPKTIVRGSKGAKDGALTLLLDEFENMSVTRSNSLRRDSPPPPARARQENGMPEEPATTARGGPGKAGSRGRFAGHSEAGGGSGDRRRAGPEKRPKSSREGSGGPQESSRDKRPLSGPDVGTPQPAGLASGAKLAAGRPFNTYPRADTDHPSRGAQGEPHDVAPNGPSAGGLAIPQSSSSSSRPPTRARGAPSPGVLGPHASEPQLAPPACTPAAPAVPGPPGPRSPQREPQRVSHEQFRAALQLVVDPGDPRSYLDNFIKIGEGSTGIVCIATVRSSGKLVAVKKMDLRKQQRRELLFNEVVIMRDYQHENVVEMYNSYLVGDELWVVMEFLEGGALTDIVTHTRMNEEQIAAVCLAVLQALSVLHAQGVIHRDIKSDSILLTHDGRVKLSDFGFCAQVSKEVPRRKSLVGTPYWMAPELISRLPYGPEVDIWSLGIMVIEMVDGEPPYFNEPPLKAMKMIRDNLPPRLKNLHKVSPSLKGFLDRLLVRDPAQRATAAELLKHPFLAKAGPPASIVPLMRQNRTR
Chain of Casein kinase I isoform delta (P48730 whole entry, canonical isoform): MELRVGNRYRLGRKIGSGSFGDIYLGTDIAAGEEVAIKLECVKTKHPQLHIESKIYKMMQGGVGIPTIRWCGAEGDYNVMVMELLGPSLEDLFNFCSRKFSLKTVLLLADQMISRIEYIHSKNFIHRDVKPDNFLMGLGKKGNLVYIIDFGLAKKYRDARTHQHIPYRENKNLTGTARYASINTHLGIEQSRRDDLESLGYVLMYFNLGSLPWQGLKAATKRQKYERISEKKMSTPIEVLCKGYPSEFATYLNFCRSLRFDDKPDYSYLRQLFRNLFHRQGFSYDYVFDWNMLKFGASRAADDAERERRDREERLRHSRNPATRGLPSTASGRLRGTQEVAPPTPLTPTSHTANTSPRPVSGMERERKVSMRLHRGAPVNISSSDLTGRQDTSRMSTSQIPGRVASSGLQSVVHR

On to `COC(=O)N[C@@H](C)CNc1nccc(-c2cn(C(C)C)nc2-c2cc(Cl)cc(NS(C)(=O)=O)c2F)n1` [ENCORAFENIB], for which the Kd is > 30 µM (inactive) in [1]; > 30 µM (inactive) in [2]; > 30 µM (inactive) in test [3]; 0.096 µM (active) at LIM domain kinase 2; > 30 µM (inactive) in test [4]; > 30 µM (inactive) in test [5]. In addition, the Kd (at Focal adhesion kinase 1; in test [6]; in test [7]; in [8]; in test [9]) was > 30 µM (inactive) each time.

Regarding `CNC(=O)c1ccc(-c2cnc3ncc(Cc4ccc5ncccc5c4)n3n2)cc1F` [CAPMATINIB], the Kd (in test [1]; in test [2]; in test [3]; at LIM domain kinase 2; in [4]; in test [5]) was > 30 µM (inactive) each time. Also, the Kd (at Focal adhesion kinase 1; in [6]; in [7]; in test [8]; in [9]) was > 30 µM (inactive) throughout.

Regarding `COC(=O)[C@@]1(O)C[C@H]2O[C@]1(C)n1c3ccccc3c3c4c(c5c6ccccc6n2c5c31)C(=O)NC4` [K-252A], the Kd in test [1] is > 30 µM (inactive); in [2], 0.344 µM (active); in [3], > 30 µM (inactive); at LIM domain kinase 2, > 30 µM (inactive); in test [4] it was > 30 µM (inactive); in test [5], 0.384 µM (active). In addition, the Kd is > 30 µM (inactive) on Focal adhesion kinase 1; > 30 µM (inactive) in test [6]; > 30 µM (inactive) in test [7]; 14.7 µM (active) in test [8]; > 30 µM (inactive) in [9].

As to `CCS(=O)(=O)N1CC(CC#N)(n2cc(-c3ncnc4[nH]ccc34)cn2)C1` [BARICITINIB], the Kd in test [1] is > 30 µM (inactive); in [2], > 30 µM (inactive); in [3] it was > 30 µM (inactive); at LIM domain kinase 2, > 30 µM (inactive); in test [4] it was > 30 µM (inactive); in test [5] it was 0.104 µM (active). Further, the Kd (at Focal adhesion kinase 1; in [6]; in test [7]; in test [8]; in test [9]) was > 30 µM (inactive) throughout.

Take `CNS(=O)(=O)Nc1nccc(Cc2c(C)c3ccc(Oc4ncccn4)cc3oc2=O)c1F` [AVUTOMETINIB]: the Kd (in test [1]; in test [2]; in test [3]; at LIM domain kinase 2; in test [4]; in test [5]) was > 30 µM (inactive) in each case. Also, the Kd (on Focal adhesion kinase 1; in test [6]; in test [7]; in [8]; in [9]) was > 30 µM (inactive) in each case.

As to `COc1ccc(-c2ccc3c(N4CCOC[C@@H]4C)nc(N4CCOC[C@@H]4C)nc3n2)cc1CO` [AZD-8055], the Kd (in [1]; in test [2]; in [3]; on LIM domain kinase 2; in test [4]; in test [5]) was > 30 µM (inactive) in each case. Further, the Kd (at Focal adhesion kinase 1; in [6]; in test [7]; in [8]; in [9]) was > 30 µM (inactive) in each case.

Take `O=C(O)[C@]1(Cc2cccc(Nc3nccs3)n2)CC[C@@H](Oc2cccc(Cl)c2F)CC1` [MK-5108]: the Kd (in [1]; in test [2]; in [3]; at LIM domain kinase 2; in test [4]; in test [5]) was > 30 µM (inactive) throughout. The Kd (at Focal adhesion kinase 1; in test [6]; in test [7]; in test [8]; in [9]) was > 30 µM (inactive) each time.

In the case of `O=C1NC(=O)/C(=C/c2ccc3nccc(-c4ccncc4)c3c2)S1` [GSK-1059615], the equilibrium dissociation constant (Kd) in test [1] was 21.5 µM (active); in test [2], > 30 µM (inactive); in test [3] it was > 30 µM (inactive); at LIM domain kinase 2, > 30 µM (inactive); in test [4], > 30 µM (inactive); in [5] it was > 30 µM (inactive). Also, the Kd (on Focal adhesion kinase 1; in test [6]; in [7]; in [8]; in test [9]) was > 30 µM (inactive) in each case.

Consider `Cc1c(F)cc(C(=O)NC2CC2)cc1-c1ccc(C(=O)NCC(C)(C)C)cn1` [LOSMAPIMOD], for which the Kd (in test [1]; in [2]; in [3]; at LIM domain kinase 2; in [4]; in test [5]) was > 30 µM (inactive) each time. Besides, the Kd (at Focal adhesion kinase 1; in test [6]; in test [7]; in test [8]; in test [9]) was > 30 µM (inactive) in each case.

As usually defined, the Kd is a measure of binding affinity in units of concentration.
